According to patent US5260286A, “2-piperidinecarboxylic acid derivatives useful as NMDA receptor antagonists” (Japan Tobacco, Inc., priority 1992, dated 1993):
pKi: −log10 of the molar value. Read-outs that look alike come from different tables or passages of the source.

Key:
NMDA receptor = test: In vitro binding assay, inhibition of [^3 H]CGS-19755 binding at the NMDA receptor site (semipurified synaptic membranes from rat forebrain); parameters: species or system Adult male Sprague-Dawley rats; details: 10 nM [^3 H]CGS-19755, 15 minutes at 4° C., 50 mM Tris-citrate pH 7.1; read-out: Ki [^3 H]CGS19755
Protocol: The compounds of the invention were tested for their ability to inhibit [^3 H]CGS-19755 binding. Semipurified synaptic membranes were prepared according to the method of Bristow et al. (1986) with minor modifications. Adult male Sprague-Dawley rats were decapitated, and the forebrains were removed, weighed and homogenized in 20 volumes of 0.32M sucrose. The homogenate was centrifuged at 27,000×G for 15 minutes. The pellet was resuspended in 20 volumes of distilled water followed by centrifugation at 8000×G for […]. Both the supernatant and the buffy coat layer, removed with 5 mM Tris-Cl (2 mL), pH 7.8, were pooled and centrifuged at 27,000×G for 15 minutes. The supernatant was removed and the pellet was covered with a small amount of 5 mM Tris-HCl and stored at -20° C. for least 18 hours. Membranes were then washed four times in 50 mM Tris-citrate, pH 7.1, and finally resuspended in the same buffer. This suspension was used for the binding assay immediately or frozen for subsequent use.
Aliquots of membranes (800 μl) were incubated with 10 nM [^3 H]CGS-19755 (100 μl) and varying concentrations of the test compounds (100 μl) for 15 minutes at 4° C. Then a filtration assay was used. The samples were filtered over glass fiber filters using a Brandel Cell Harvester. […]
Ki values were calculated from the equation: [formula]

NMDA recognition site = details: Lehman et al., 1988; Murphy et al., 1987; cited from earlier work
NMDA-Induced Lethality = test: In vivo protection in the mouse against NMDA-induced lethality; parameters: species or system male Swiss-Webster mice; details: ip; for ED50: Mus musculus, read-out: PD50
Protocol: (§1) According to the method described by Ferkany et al. (1988), the test compounds were administered ip to four male Swiss-Webster mice (26-34 g) each, following 30 minutes later, 200 mg/kg of NMDA was administered to the mice each. […] Those compounds that protected three or more of the mice at any of the doses were evaluated further by determining the ED50 values using three or more doses with the eight mice per dose. The ED50 was estimated by the method of Litchfield and Wilcoxin (1949). Water-soluble compounds were dissolved in distilled water and administered in a volume of 10 mL/kg. Water-insoluble compounds were suspended in an aqueous solution of 0.5% methyl cellulose and administered in a volume of 20 mL/kg.

[1] = Lethality of NMDA in mice; parameters: species or system male Swiss-Webster mice; details: mouse, in vivo
Protocol: as §1

[2] = 30 minutes before 200 mg/kg NMDA, Litchfield and Wilcoxin

SMILES	pKi (NMDA receptor)	antagonists at the NMDA recognition site (NMDA recognition site)	ED50 (NMDA-Induced Lethality; 30 minutes before 200 mg/kg NMDA, eight mice per dose, Litchfield and Wilcoxin)	Confidence Limits (of PD50) (NMDA-Induced Lethality; [2])	Slope (NMDA-Induced Lethality; [2])	ED50 (NMDA-Induced Lethality)	mortality ([1]; 200 mg/kg NMDA, read-out: mice died at 200 mg/kg NMDA)	LD50 ([1]; mice)
O=C(O)[C@H]1C[C@@H](CP(=O)(O)O)CCN1 (relative stereo) [CGS-19755, cis-4-(phosphonomethyl)-2-piperidinecarboxylicacid]	6.95	high-affinity antagonists	2 mg/kg	1.2-3.6	2.46	–	–	–
O=C(O)C1C/C(=C/P(=O)(O)O)CCN1 (centres unmarked) [E-4-(phosphonomethylidene)-2-piperidinecarboxylic acid]	6.23	–	–	0.5-2.2	1.96	1.1 mg/kg	–	–
CN[C@H](CC(=O)O)C(=O)O [NMDA, N-methyl-D-aspartate]	–	–	–	–	–	–	~90%	164 mg/kg
